# Measurements as given in BindingDB's records for doi:10.1016/j.bmc.2018.03.016 (University of Lille, 2018).
# pIC50: −log10 of the molar value.
# Test: Modulation of human wild-type APP695 expressed in SH-SY5Y cells assessed as inhibition of amyloid beta (1 to 42 residues) production measured after 24 hrs by ELISA
row,Compound,pIC50
1,c1ccc(Nc2cc(CNCCN3CCCCC3)cc(CNCCN3CCCCC3)c2)c(CN2CCCCC2)c1,5.22
2,O=C(CN1CCCCC1)Nc1cc(CN2CCOCC2)cc(Nc2ccnc3cc(Cl)ccc23)c1,5.15
3,CCN(CC)Cc1cc(NC(=O)CN2CCCCC2)cc(Nc2ccnc3cc(Cl)ccc23)c1,5.55
4,O=C(NCCN1CCCCC1)c1cc(Nc2ccccc2CN2CCCCC2)cc(C(=O)NCCN2CCCCC2)c1,5.33
5,Clc1ccc2c(Nc3cc(CN4CCOCC4)cc(NCCN4CCCCC4)c3)ccnc2c1,5.31
6,CCN(CC)Cc1cc(Nc2ccnc3cc(Cl)ccc23)ccc1O [Amodiaquin],5.27
7,CN(C)CCN(C)Cc1cc(NC(=O)CN2CCCCC2)cc(Nc2ccnc3cc(Cl)ccc23)c1,5.54
8,CCN(CC)Cc1cc(NCCN2CCCCC2)cc(Nc2ccnc3cc(Cl)ccc23)c1,4.86
9,c1ccc(Nc2cc(CNCCN3CCCCC3)cc(CNCCN3CCCCC3)c2)c(CN2CCOCC2)c1,5.10
10,CCN(CC)CCC[C@@H](C)Nc1ccnc2cc(Cl)ccc12 [Aralen],4.89
11,CN1CCN(c2cc(Nc3ccnc4cc(Cl)ccc34)cc(N3CCN(C)CC3)c2)CC1,5.72
12,CCN(CC)Cc1cccc(Nc2ccnc3cc(Cl)ccc23)c1,4.98
13,O=C(NCCN1CCCCC1)c1cc(C(=O)NCCN2CCCCC2)cc(-c2ccccc2CN2CCCCC2)c1,5.03
14,CN(C)Cc1ccccc1Nc1cc(C(=O)NCCN2CCCCC2)cc(C(=O)NCCN2CCCCC2)c1,< 5.00
15,Oc1c(CN2CCCC2)cc(Nc2ccnc3cc(Cl)ccc23)cc1CN1CCCC1,4.95
